Source: patent publication US20250059139A1, “COMPOUNDS FOR TREATMENT OF CANCER” (THE JOHNS HOPKINS UNIVERSITY, priority 2021, published 2025)

Columns and labels:
[1] = system: LNCaP and LNCaP/AHR-KD xenografts; assay: In vivo growth of LNCaP vs. LNCaP/AHR-KD xenografts in intact male hosts; set-up: species or system human; settings: daily oral 10 mg/kg/d from day 53 post-inoculation
Source text: (§1) Prostate Cancer Models. The source, history, and characteristics of the human prostate cancer cell lines and PDXs used, as well as cell culture conditions for their in vitro maintenance and the in vivo protocol for xenograft growth in triple immune-deficient NSG (i.e. NOD.Cg-PrkdcScidIl2rgtmlWji/Szj), adult (>8 week old) male mice obtained from the Sidney Kimmel Comprehensive Cancer Center (SKCCC) Animal Core Facility are described previously (Isaacs 2013; Brennen et al. JCI Insight. 2021, 6(8):e146827; Zhu et al. Oncogene 2020, 39(45): 6935-6949). […] In vitro growth curves were determined as described (Isaacs 2013). In vivo growth response to oral daily TasQ (10 mg/kg/d) of TRAMP-C2 mouse prostate cancers was evaluated in C57BL/6J syngeneic wild type vs. NOX-2 vs. iNOS null male mice obtained from Jackson Laboratory (Bar Harbor, ME). Growth response to oral daily TasQ (10 mg/kg/d) of TRAMP-C2 and B6CaP mouse prostate cancers was also evaluated in S100A9 null C57BL′6J male mice obtained from Dmitry Gabrilovich (Wistar Institute). […] In vitro growth curves were determined as described (Isaacs 2013). Growth response to daily oral TasQ vs. ESATA-20 (both at 10 mg/kg/d) of Myc-CaP-CR mouse prostate cancer was evaluated in syngeneic FVB/NJ castrate male mice from Jackson Laboratory. […]

[2] = system: CWR-22Rv1 parental wild type cells; assay: In vivo growth of CWR-22Rv1 parental wild type xenografts; set-up: species or system human; settings: daily oral 10 mg/kg/d
Source text: as §1

For `COc1cccc2c1c(O)c(C(=O)N(C)c1ccc(C(F)(F)F)cc1)c(=O)n2C` [TasQ, Tasquinimod], the “growth response of LNCaP and LNCaP/AHR-KD xenografts” value [1] was “equally inhibited” and the “growth inhibition of wild type xenografts” value [2] was > 80%.
